Here are results for five compounds from PubChem BioAssay AID1259407 (Chemical Carcinogenesis Research Information System (CCRIS), 2018).

SMILES strings stand for the structures. Active and inactive are the calls of the source. The rule behind the calls is not given here.

The series concerns CCRIS mutagenicity, Ames/micronucleus/aberration tests. The experiment in a line: CCRIS mutagenicity studies.
[1] abbreviates: Test System: AMES SALMONELLA TYPHIMURIUM, Strain/Indicator: TA98, Metabolic Activation: NONE, Method: STANDARD PLATE.
Where [2] appears, read: Test System: AMES SALMONELLA TYPHIMURIUM, Strain/Indicator: TA100, Metabolic Activation: NONE, Method: STANDARD PLATE.
[3] abbreviates: Test System: AMES SALMONELLA TYPHIMURIUM, Strain/Indicator: TA102, Metabolic Activation: NONE, Method: STANDARD PLATE.
[4] abbreviates: Test System: AMES SALMONELLA TYPHIMURIUM, Strain/Indicator: TA1535, Metabolic Activation: NONE, Method: STANDARD PLATE.
[5] abbreviates: Test System: AMES SALMONELLA TYPHIMURIUM, Strain/Indicator: TA1537, Metabolic Activation: NONE, Method: STANDARD PLATE.

Turning to `CNC(=O)CSP(=S)(OC)OC`, the mutagenic call runs as follows: (End Point: In vitro chromosomal aberrations, Test System: Human lymphocytes, Metabolic Activation: None) “active; positive (structural changes and ploidy)”; (Test System: AMES SALMONELLA TYPHIMURIUM, Strain/Indicator: G46, Metabolic Activation: HOST-MEDIATED, Method: STANDARD PLATE) “active; positive”; (Test System: AMES SALMONELLA TYPHIMURIUM, Strain/Indicator: TA97A, Metabolic Activation: NONE, Method: STANDARD PLATE) “inactive; negative”; (Test System: AMES SALMONELLA TYPHIMURIUM, Strain/Indicator: TA97A, Metabolic Activation: PLANT, HOMOGENATE, S-14, Method: STANDARD PLATE) “inactive; negative”; (Test System: AMES SALMONELLA TYPHIMURIUM, Strain/Indicator: TA97A, Metabolic Activation: S-9, Method: STANDARD PLATE) “inactive; negative”; under setting [1], “inactive; negative”. Moreover, the mutagenic call was “inactive; negative” (Test System: AMES SALMONELLA TYPHIMURIUM, Strain/Indicator: TA98, Metabolic Activation: PLANT, HOMOGENATE, S-14, Method: STANDARD PLATE); “inactive; negative” (Test System: AMES SALMONELLA TYPHIMURIUM, Strain/Indicator: TA98, Metabolic Activation: RAT, LIVER, S-9, Method: STANDARD PLATE); “inactive; negative” (Test System: AMES SALMONELLA TYPHIMURIUM, Strain/Indicator: TA98, Metabolic Activation: S-9, NADPH GENERATING SYSTEM, Method: STANDARD PLATE); “inactive; negative” (Test System: AMES SALMONELLA TYPHIMURIUM, Strain/Indicator: TA98, Metabolic Activation: S-9, Method: STANDARD PLATE); “inactive; negative” (Test System: AMES SALMONELLA TYPHIMURIUM, Strain/Indicator: TA98, Metabolic Activation: WHEAT SEEDLING, S-14, Method: STANDARD PLATE); “active; positive” (Test System: AMES SALMONELLA TYPHIMURIUM, Strain/Indicator: TA100, Metabolic Activation: NONE, Method: PREINCUBATION). Also, the mutagenic call by setting is: under setting [2], “inactive; negative”; (Test System: AMES SALMONELLA TYPHIMURIUM, Strain/Indicator: TA100, Metabolic Activation: PLANT, HOMOGENATE, S-14, Method: STANDARD PLATE) “inactive; negative”; (Test System: AMES SALMONELLA TYPHIMURIUM, Strain/Indicator: TA100, Metabolic Activation: S-9, Method: STANDARD PLATE) “inactive; negative”; (Test System: AMES SALMONELLA TYPHIMURIUM, Strain/Indicator: TA100, Metabolic Activation: S-9 MIX, Method: STANDARD PLATE) “active; positive”; under setting [3], “inactive; negative”; (Test System: AMES SALMONELLA TYPHIMURIUM, Strain/Indicator: TA102, Metabolic Activation: RAT, LIVER, S-9, Method: STANDARD PLATE) “inactive; negative”. Moreover, the mutagenic call (Test System: AMES SALMONELLA TYPHIMURIUM, Strain/Indicator: TA102, Metabolic Activation: S-9, NADPH GENERATING SYSTEM, Method: STANDARD PLATE) is “inactive; negative”; the mutagenic call (Test System: AMES SALMONELLA TYPHIMURIUM, Strain/Indicator: TA102, Metabolic Activation: WHEAT SEEDLING, S-14, Method: STANDARD PLATE) was “inactive; negative”; the mutagenic call under setting [4] is “inactive; negative”; the mutagenic call (Test System: AMES SALMONELLA TYPHIMURIUM, Strain/Indicator: TA1535, Metabolic Activation: PLANT, HOMOGENATE, S-14, Method: STANDARD PLATE) was “inactive; negative”; the mutagenic call (Test System: AMES SALMONELLA TYPHIMURIUM, Strain/Indicator: TA1535, Metabolic Activation: RAT, LIVER, S-9, Method: STANDARD PLATE) was “inactive; negative”; the mutagenic call (Test System: AMES SALMONELLA TYPHIMURIUM, Strain/Indicator: TA1535, Metabolic Activation: S-9, NADPH GENERATING SYSTEM, Method: STANDARD PLATE) is “inactive; negative”. The mutagenic call runs as follows: (Test System: AMES SALMONELLA TYPHIMURIUM, Strain/Indicator: TA1535, Metabolic Activation: S-9, Method: STANDARD PLATE) “inactive; negative”; (Test System: AMES SALMONELLA TYPHIMURIUM, Strain/Indicator: TA1535, Metabolic Activation: WHEAT SEEDLING, S-14, Method: STANDARD PLATE) “inactive; negative”; under setting [5], “inactive; negative”; (Test System: AMES SALMONELLA TYPHIMURIUM, Strain/Indicator: TA1537, Metabolic Activation: S-9, NADPH GENERATING SYSTEM, Method: STANDARD PLATE) “inactive; negative”.

As for `Cc1ccc2cc(C)c3c4c(ccc3c2c1)[C@H](O)[C@@H](O)[C@H]1O[C@@H]41`, the mutagenic call under setting [2] is “active; positive”.

For `CC[C@@]1(O)C[C@H](O[C@H]2C[C@H](N(C)C)[C@H](O[C@H]3C[C@H](O)[C@H](O[C@H]4C[C@H](O)[C@H](O)[C@H](C)O4)[C@H](C)O3)[C@H](C)O2)c2c(cc3c(c2O)C(=O)c2c(O)ccc(O)c2C3=O)[C@H]1C(=O)OC`, the mutagenic call was “inactive; negative” (Test System: AMES SALMONELLA TYPHIMURIUM, Strain/Indicator: TA97, Metabolic Activation: NONE, Method: STANDARD PLATE); “inactive; negative” under setting [1]; “active; positive” under setting [3]; “active; positive” (Test System: AMES SALMONELLA TYPHIMURIUM, Strain/Indicator: TA104, Metabolic Activation: NONE, Method: STANDARD PLATE); “inactive; negative” (Test System: AMES SALMONELLA TYPHIMURIUM, Strain/Indicator: TA2637, Metabolic Activation: NONE, Method: STANDARD PLATE).

For the compound `O=[N+]([O-])c1ccc2ccc3c4c(cc5ccc1c2c53)[C@@H](O)[C@H](O)[C@@H]1O[C@H]41`, the mutagenic call (Test System: CHINESE HAMSTER OVARY, Strain/Indicator: CHO-K1-BH4 (HGPRT)/6-THIOGUANINE, Metabolic Activation: NONE) was “active; positive”.

As for `Cc1c(-c2cnccn2)ssc1=S`, the mutagenic call is, setting by setting: under setting [1], “inactive; negative”; (Test System: AMES SALMONELLA TYPHIMURIUM, Strain/Indicator: TA98, Metabolic Activation: RAT, LIVER, S-9, AROCLOR 1254 OR PHENOBARBITOL, Method: STANDARD PLATE) “inactive; negative”; under setting [2], “inactive; negative”; (Test System: AMES SALMONELLA TYPHIMURIUM, Strain/Indicator: TA100, Metabolic Activation: RAT, LIVER, S-9, AROCLOR 1254 OR PHENOBARBITOL, Method: STANDARD PLATE) “inactive; negative”; under setting [4], “inactive; negative”; (Test System: AMES SALMONELLA TYPHIMURIUM, Strain/Indicator: TA1535, Metabolic Activation: RAT, LIVER, S-9, AROCLOR 1254 OR PHENOBARBITOL, Method: STANDARD PLATE) “inactive; negative”. Besides, the mutagenic call is, setting by setting: under setting [5], “inactive; negative”; (Test System: AMES SALMONELLA TYPHIMURIUM, Strain/Indicator: TA1537, Metabolic Activation: RAT, LIVER, S-9, AROCLOR 1254 OR PHENOBARBITOL, Method: STANDARD PLATE) “inactive; negative”; (Test System: AMES SALMONELLA TYPHIMURIUM, Strain/Indicator: TA1538, Metabolic Activation: NONE, Method: STANDARD PLATE) “inactive; negative”; (Test System: AMES SALMONELLA TYPHIMURIUM, Strain/Indicator: TA1538, Metabolic Activation: RAT, LIVER, S-9, AROCLOR 1254 OR PHENOBARBITOL, Method: STANDARD PLATE) “inactive; negative”.
